According to patent US9572760B2, “Uses of compounds and mixtures from Antrodia cinnamomea mycelia” (Simpson Biotech Co., Ltd., priority 2013, dated 2017):

How the values were obtained:
[1] = tested on: CuZnSOD, MnSOD, Catalase, Glutathione peroxidase, NADPH oxidase; assay: Real-time RT-PCR of oxidative stress genes (anti-oxidant enzymes, NADPH oxidase) in liver of cirrhotic animals; format: in vivo, Wistar rats; details: compound B 7 mg/kg, compound C 14 mg/kg, ACM 320 mg/kg
Method: Sample tissues of rat livers were measured about 0.5×0.5 cm in area. Each of tissue was homogenized in 1 mL of TRIzol buffer (Invitrogen, Carlsbad, Calif., USA) with a motorized pestle, and then mixed with 0.5 mL chloroform/isoamyl alcohol (24:1), and was centrifuged at 12,000×g for 10 min at 4° C. The supernatant was transferred to a fresh tube, and isopropanol was added, mix well and stored at −80° C. overnight. The reaction mixture was centrifuged at 12,000×g for 30 min at 4° C. to produce a rude RNA pallet, the pellet was washed with 70% ethanol and air-dried. The concentrations of total RNA were measured by absorbance at 260 nm using a NanoDrop ND-1000 (NanoDrop, USA). Reverse transcription reaction was performed using a commercially available set of High Capacity RNA-to-cDNA Kit (Applied Biosystems, USA). cDNA was prepared from 2 μg of total RNA per 20 μl reaction, according to the manufacturer's instructions—37° C. for 60 minutes, 95° C. for 5 minutes, and hold at 4° C. The resulting cDNA was to a final concentration of 100 ng/μl and constituted a matrix in further experiments. Amplification and detection the gene expression by real-time PCR were performed using StepOne plus Real-time PCR System (Applied Biosystems, USA). Samples were assayed in a 10 μl reaction mixture containing 2 μl of template DNA, 5 μl of 2× TaqMan PCR Master Mix (Applied Biosystems, Life Technologies, Foster City, Calif., USA), 0.5 μl of 20× assay mix containing probe, forward and reverse primer (Applied Biosystems, Life Technologies, Foster City, Calif., USA), whereby qPCR targets with the following information were used: (a) Rat α-SMA, Assay ID Rn01759928_g1, (b) Rat TIMP, Assay ID Rn00587558_m1, (c) Rat TGF-β1, Assay ID Rn00572010_m1, (d) Rat Collagen I, Assay ID Rn 01463838_m1, (e) Rat CuZnSOD, Assay ID Rn00566938_m1, (f) Rat MnSOD, Assay ID Rn00690587_g1, (g) Rat Catalase, Assay ID Rn00560930_m1, (h) Rat Glutathione peroxidase, Assay ID Rn00577994_g1, (i) Rat NADPH oxidase, Assay ID Rn00585380_m1 and (j) Rat GAPDH, Assay ID Rn1462662_g1. To control variation in mRNA concentration, all results were normalized to the housekeeping gene, GAPDH. Relative quantitation was performed using the comparative ΔΔCt method according to the manufacture's instructions. The cycling conditions used were as follows: 50° C. for 2 min, 95° C. for 10 min followed by 40 cycles of 95° C. for 15 s and 60° C. for 1 min each.

[2] = tested on: TGFb1-treated immortalized HSC; assay: Profibrogenic gene expression in immortalized HSC with recombinant TGF-β treatment (qRT-PCR); format: cell-based, human; details: for Collagen-1 expression / TGF-β expression / TIMP-1 expression / αSMA expression: compounds 72 hours, then TGF-β (3 ng/ml) 48 hours
Excerpt: The AML12 (mouse hepatocyte) cells were obtained from the BCRC (Bioresource Collection and Research Center) and cultured in Dulbecco's modified Eagle media (DMEM, Gibco by Invitrogen) with 1% antibiotic antimycotic (Gibco by Invitrogen) and 15% fetal bovine serum (Gibco by Invitrogen). The human Hepatic Stellate Cell, HSC cell line was obtained from the ScienCell Research Laboratory (USA) and cultured in complete medium, Stellate Cell Medium (ScienCell Research Laboratory) with 2% fetal bovine serum (ScienCell Research Laboratory), 1% stellate cell growth supplement (ScienCell Research Laboratory) and 1% penicillin/streptomycin solution (ScienCell Research Laboratory). […] For primary hepatic stellate cell isolation, C57BL/6 mice were anesthetized by intraperitoneal injection of ketamine and xylazine. […] Mouse livers were perfused in situ with 0.5 mM EGTA containing calcium-free salt solution (8 ml/min, 37° C. for 5 minutes), followed by perfusion with 2-step 0.05% collagenase D and pronase containing buffer (Roche Molecular Biochemicals, Indianapolis, Ind.) for 5 and 10 minutes, respectively. The harvested liver was minced gently on a Petri dish and additional incubation with protease containing buffer at 37° C. for 25 minutes. Then, the liver was filtered with 70 μm cell strainer. Cells were centrifuged and collected followed by 8.2% Nycodenz (Accurate Chemical and Scientific Corp.). The cell lines were cultured at 37° C. in a humidified atmosphere containing 5% CO2.
Exponentially growing cells were harvested and seeded in a 6-well microtiter plate. Each well of cells were collected to eppendrof in 1 mL of TRIzol buffer (Invitrogen, Carlsbad, Calif., USA), and then mixed with 0.5 mL chloroform/isoamyl alcohol (24:1), eppendrofs were centrifuged at 12,000×g for 10 min at 4° C. The supernatant was transferred to a fresh tube, and isopropanol was added, mix well and stored at −80° C. overnight. The reaction mixture was centrifuged at 12,000×g for 30 min at 4° C. to produce a rude RNA pallet, the pellet was washed with 70% ethanol and air-dried. The concentrations of total RNA were measured by absorbance at 260 nm using a NanoDrop ND-1000 (NanoDrop, USA).
Reverse transcription reaction was performed using a commercially available set of High Capacity RNA-to-cDNA Kit (Applied Biosystems, USA). cDNA was prepared from 2 μg of total RNA per 20 μl reaction, according to the manufacturer's instructions—37° C. for 60 minutes, 95° C. for 5 minutes, and hold at 4° C. The resulting cDNA was to a final concentration of 100 ng/μl and constituted a matrix in further experiments.
Amplification and detection the gene expression by real-time PCR were performed using StepOne plus Real-time PCR System (Applied Biosystems, USA). Samples were assayed in a 10 μl reaction mixture containing 2 μl of template DNA, 5 μl of 2× TaqMan PCR Master Mix (Applied Biosystems, Life Technologies, Foster City, Calif., USA), 0.5 μl of 20× assay mix containing probe, forward and reverse primer (Applied Biosystems, Life Technologies, Foster City, Calif., USA), whereby qPCR targets with the following information were used: (a) α-SMA, Assay ID Rn01759928_g1, (b) TIMP-1, Assay ID Rn00587558_m1, (c) TGF-β1, Assay ID Rn00572010_m1, (d) Collagen I, Assay ID Rn 01463838_m1, (e) GAPDH, Assay ID Rn1462662_g1. To control variation in mRNA concentration, all results were normalized to the housekeeping gene, GAPDH. Relative quantitation was performed using the comparative ΔΔCt method according to the manufacturer's instructions. The cycling conditions used were as follows: 50° C. for 2 min, 95° C. for 10 min followed by 40 cycles of 95° C. for 15 s and 60° C. for 1 min each. […]

Row | SMILES | Catalase gene expression in liver [1] | CuZnSOD gene expression in liver [1] | Glutathione peroxidase gene expression in liver [1] | MnSOD gene expression in liver [1] | NADPH oxidase gene expression in liver [1] | anti-fibrosis effect on immortalized HSC in response to TGF-β (summary) [2] | Collagen-1 expression [2] | TGF-β expression [2] | TIMP-1 expression [2] | αSMA expression [2]
1 | CC(C)=CCOc1ccc(C2=C(CC(C)C)C(=O)N(O)C2=O)cc1 [Compound C, 3-isobutyl-4-[4-(3-methyl-2-butenyloxy)phenyl]-1H-pyrrol-1-ol-2,5-dione] | up-regulated significantly | up-regulated significantly | up-regulated significantly | up-regulated significantly | down-regulated significantly | anti-fibrosis effect | dose-dependent effect | dose-dependent effect | dose-dependent effect | dose-dependent effect
2 | CC(C)=CCOc1ccc(C2=C(CC(C)C)C(=O)NC2=O)cc1 [Compound B, 3-isobutyl-4-[4-(3-methyl-2-butenyloxy)phenyl]-1H-pyrrol-2,5-dione] | up-regulated significantly | up-regulated significantly | up-regulated significantly | up-regulated significantly | down-regulated significantly | anti-fibrosis effect | dose-dependent effect | dose-dependent effect | dose-dependent effect | dose-dependent effect
